Measured values taken from US10392345B2, “Crystal of salt of novel 3-azabicyclo[3.1.0]hexane derivative and pharmaceutical use thereof” (SANWA KAGAKU KENKYUSHO CO., LTD., priority 2015, dated 2019).

Assay: Mice serum protein binding assay (equilibrium dialysis, RED Device)
Assay type: in vitro ADME
Settings: CD-1 (ICR), mouse, pH 7.4, murine serum, 37° C., 5 to 6 hours, read-out: Protein binding rate (converted)
Experimental: The protein binding rate was determined by equilibrium dialysis method using the RED Device (8K MWCO, Rapid Equilibrium Dialysis Device, Thermo Scientific). The test substances that had been dissolved in DMSO were added to the serum that was collected from Cr1: CD-1 (ICR) mice fasted overnight, so that the final concentration of DMSO became 1% (v/v). The serum to which the test substance had been added was added to the inner side of the dialysis membrane of the RED Device, and PBS (phosphate buffer saline, pH 7.4) containing 0.01% (v/v) Tween 80 was added to the outside in accordance with the method for using the RED Device and incubated at 37° C. for 5 to 6 hours with ellipsoidal shaking at 100 rpm so that the concentration of the unbound test substance in the serum and the concentration of the test substance in the PBS reached equilibrium. […] The proteins were removed from the measurement sample by adding acetonitrile in an amount of 5-fold or more of the amount of the internal standard substance and the serum sample, and the supernatants were measured by LC/MS/MS (liquid chromatograph-triple quadrupole mass spectrometer). The serum samples were measured after suitably diluting with distilled water as necessary. […]
However, in the case when the concentration in the sample was calculated by using a calibration curve, A and B were as follows.

CC[C@]1(c2cccc(NS(C)(=O)=O)c2)[C@@H]2CN(CC3(O)Cc4ccccc4C3)C[C@@H]21 [Comparative Compound 1, N-(3-{(1R,5S,6r)-6-ethyl-3-[(2-hydroxy-2,3-dihydro-1H-inden-2-yl)methyl]-3-azabicyclo[3.1.0]hexan-6-yl}phenyl)methanesulfonamide methanesulfonate]
fraction unbound: 0.068
